Laboratory results: patent publication US11518742B2 (priority 2020, dated 2022)
Where two headings read alike, the source gives them in different places.

Tests used:
[1] = test system: Chinese hamster ovary (CHO)-K1 cells; experiment: In vitro micronucleus test (flow cytometry); assay type: cell-based
From the text: The treatment with the vehicle/negative and positive controls was concurrently performed.

[2] = target: hERG potassium channel current (IKr) (Homo sapiens, UniProt Q12809); experiment: cell-based
Chain of hERG potassium channel current (IKr) (Q12809 whole entry): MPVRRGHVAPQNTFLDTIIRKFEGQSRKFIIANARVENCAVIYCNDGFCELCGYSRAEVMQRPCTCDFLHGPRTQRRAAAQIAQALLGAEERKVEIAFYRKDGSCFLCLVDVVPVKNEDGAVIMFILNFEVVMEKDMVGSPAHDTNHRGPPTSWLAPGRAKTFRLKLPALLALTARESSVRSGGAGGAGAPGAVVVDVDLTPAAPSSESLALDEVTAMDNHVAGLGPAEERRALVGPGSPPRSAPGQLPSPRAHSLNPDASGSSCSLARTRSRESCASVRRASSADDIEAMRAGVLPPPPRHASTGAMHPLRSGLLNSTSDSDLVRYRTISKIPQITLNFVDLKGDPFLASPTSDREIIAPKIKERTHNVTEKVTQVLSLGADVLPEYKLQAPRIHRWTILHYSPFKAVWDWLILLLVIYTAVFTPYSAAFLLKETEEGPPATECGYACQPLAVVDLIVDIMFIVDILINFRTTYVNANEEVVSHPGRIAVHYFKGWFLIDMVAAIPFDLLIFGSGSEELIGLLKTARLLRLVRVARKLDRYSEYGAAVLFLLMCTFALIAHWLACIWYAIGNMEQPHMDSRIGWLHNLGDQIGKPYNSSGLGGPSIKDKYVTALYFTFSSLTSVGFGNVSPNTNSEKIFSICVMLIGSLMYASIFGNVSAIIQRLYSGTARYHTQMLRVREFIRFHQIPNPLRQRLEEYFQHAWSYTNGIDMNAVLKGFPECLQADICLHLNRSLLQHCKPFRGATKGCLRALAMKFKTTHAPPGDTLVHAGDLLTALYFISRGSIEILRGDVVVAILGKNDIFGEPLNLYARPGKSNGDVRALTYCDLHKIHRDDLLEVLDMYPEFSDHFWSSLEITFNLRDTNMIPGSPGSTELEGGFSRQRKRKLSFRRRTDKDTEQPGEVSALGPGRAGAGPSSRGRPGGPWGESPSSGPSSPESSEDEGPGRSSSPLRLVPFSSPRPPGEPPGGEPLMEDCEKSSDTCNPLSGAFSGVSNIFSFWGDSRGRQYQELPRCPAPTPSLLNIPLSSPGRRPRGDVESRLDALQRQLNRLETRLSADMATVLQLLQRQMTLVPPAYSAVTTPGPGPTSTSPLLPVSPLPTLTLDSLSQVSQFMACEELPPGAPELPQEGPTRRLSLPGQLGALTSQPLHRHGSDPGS
From the text: This assay is employed as a screen to assess potential risks for QT interval prolongation.

[3] = Toxicokinetics, 14-day intranasal study in rats (Study 700041); assay type: in vivo; settings: Sprague Dawley, rat, plasma, inhaled or intranasal; for AUC(0-t): read-out: AUC0-Tlast [SE]; for AUC(0-inf): read-out: AUCINF_obs
Description: The animals were monitored for mortality, clinical signs, respiratory measurements, body weights, food consumption, and body temperature. Ophthalmoscopic examinations and respiratory function tests were performed on all animals at scheduled timepoints. Clinical pathology assessments (hematology, coagulation, clinical chemistry, and urinalysis) were evaluated at termination. […] Following dosing, the Main animals were euthanized and subjected to a complete necropsy examination on Day 15. […] TK animals were euthanized after the last blood collection and discarded without further examination. At terminal euthanasia, selected tissues/organs were weighed, and microscopic evaluations of a standard set of tissues including the nasal turbinates (4 sections) and brain (7 sections) were performed for all Main and Recovery study animals.
Following dosing, animals in the Main group were euthanized and subjected to a necropsy examination on Day 15.

[4] = test system: Salmonella typhimurium tester strains; experiment: Bacterial Reverse Mutation Test (Ames test), Salmonella typhimurium
[5] = test system: Escherichia coli tester strain WP2uvrA; experiment: Bacterial Reverse Mutation Test (Ames test), Escherichia coli
[6] = Toxicokinetics in dog MTD study (Study 62958); assay type: in vivo
Description: (§1) During Phase 2, assessments of mortality, clinical signs, body weights and food consumption were performed. […] Following the last dosing, all animals were euthanized and subjected to a necropsy examination on Day 8. The necropsy consisted of an external examination; including reference to all clinically-recorded lesions, as well as a detailed internal examination. Study plan specific tissues/organs were collected and preserved following necropsy but were not further examined microscopically.
There were no sex differences in any of the measured toxicokinetic parameters on either occasion.

Beagle dogs = experiment: 14-day repeat-dose intranasal toxicity study with 14-day recovery in dogs (Study 62959); assay type: in vivo, dog
Description: (§2) Assessments of mortality, clinical signs, olfactory reflex, body weights, food consumption, ophthalmology, and electrocardiograms were performed. In addition, clinical pathology assessments (hematology, coagulation, clinical chemistry and urinalysis) were evaluated once pretreatment and at termination. Blood samples were collected from the jugular vein of all animals on Days 1 and 14, at up to 8 time points relative to treatment, for analysis of test item concentration in plasma and the subsequent calculation of toxicokinetic parameters. Following dosing, the Main animals were euthanized and subjected to a complete necropsy examination on Day 15. […] All Main and Recovery study animals underwent complete necropsy examinations, selected tissues/organs were retained, and microscopic evaluations of a standard set of tissues were performed.

[7] = as above; assay type: in vivo, dog; settings: both sexes, Beagle, dog, in vivo, inhaled or intranasal; 14 consecutive days intranasal, 14-day recovery
Description: as §2

Dog = experiment: Summary of clinical observations in applicant-sponsored dog studies; assay type: in vivo; settings: Dog 1.0 mg/kg (= 33 mg HED); preliminary data, ongoing study
From the text: (§3) Based on preliminary data from another ongoing study in dogs, it has been observed that the site of blood sampling in dogs may impact the measured plasma exposure. Samples from the jugular vein may result in higher apparent exposure levels than samples from the cephalic vein, which might be due to the local transmucosal route of administration (also reported in the scientific literature (Illum, 2003; Sohlberg, 2013)). Therefore, dose escalation criteria for the Phase 1 Single Ascending Dose study are based on assessment of clinical criteria, safety factors and exposure. A maximum dose of 14 mg has been designated.

[8] = as above; assay type: in vivo; settings: beagle, in vivo, other: intranasal instillation; Dog; HED 50 mg; read-out: NOAEL determined in the 14-day toxicology studies
From the text: as §3

[9] = Maximum tolerated dose followed by 7-day repeat-dose toxicology in dogs (Study 62958); assay type: in vivo, dog; settings: both sexes, dog, in vivo, inhaled or intranasal; intranasal instillation
Description: (§4) In support of these objectives, the study consisted of 2 individual phases.
(§5) The test item was administered once by intranasal instillation to one male and female dog for up to 5 dose levels until the highest tolerable dose (MTD) was determined as described in Table 11.
as §1

dogs = experiment: as above; assay type: in vivo, dog
Description: as §4, §5, §1

[10] = female, 5 mg/kg/day, Day 1, Female
[11] = female, 5 mg/kg/day, Day 14, Female
[12] = female, 20 mg/kg/day, Day 1, Female
[13] = female, 75 mg/kg/day, Day 1, Female
[14] = female, 75 mg/kg/day, Day 14, Female
[15] = male, 5 mg/kg/day, Day 14, Male
[16] = male, 20 mg/kg/day, Day 1, Male
[17] = male, 20 mg/kg/day, Day 14, Male
[18] = male, 75 mg/kg/day, Day 1, Male
[19] = male, 75 mg/kg/day, Day 14, Male

Q: Which “Chromosome-damaging potential (conclusion)” value [1] does the source give for `COc1ccc2[nH]cc(CCN(C)C)c2c1` [5MeODMT, 5-methoxy-N,N-dimethyltryptamine] here?
A: no chromosome-damaging potential

Q: What about the “Micronuclei or hypodiploid cells” value ([1]; all treatment regimens, absence or presence of S9) of the same compound?
A: did not induce any increases in micronuclei or hypodiploid cells

Q: What about the Cytotoxicity or precipitation ([1]; up to the maximal dose level of 300 μg/mL) of the same compound?
A: No cytotoxicity or precipitation

Q: What about the IC50 [2] of the same compound?
A: 8.69 µM

Q: What about the inhibition at 1 µM ([2]; human) of the same compound?
A: 5.03 ± 1.95%

Q: What about the inhibition at 3 µM ([2]; human) of the same compound?
A: 23.8 ± 6.1%

Q: What about the inhibition at 10 µM ([2]; human) of the same compound?
A: 52.7 ± 2.61%

Q: And the inhibition at 35 µM ([2]; human)?
A: 82.2 ± 1.91%

Q: What about the Tmax ([3]; both sexes, 75 mg/kg, rats, 14-day intranasal study, 5, 20, 75 mg/kg) of the same compound?
A: 2 to 5 min

Q: And the half-life ([3]; both sexes, 75 mg/kg, rats, 14-day intranasal study, 5, 20, 75 mg/kg, read-out: apparent t1/2)?
A: 6.8 to 9.4 min

Q: And the Cmax [3, 10]?
A: 186 ng/mL

Q: What about the Tmax [3, 10] of the same compound?
A: 9.96 min

Q: And the AUC(0-t) [3, 10]?
A: 53.2 ng·h/mL

Q: And the AUC(0-inf) [3, 10]?
A: 53.7 ng·h/mL

Q: And the Cmax [3, 11]?
A: 645 ng/mL

Q: What about the AUC(0-t) [3, 11] of the same compound?
A: 63.8 ng·h/mL

Q: And the AUC(0-inf) [3, 11]?
A: 64 ng·h/mL

Q: And the half-life ([3]; female, 5 mg/kg/day, Day 14, Female, read-out: t1/2 (converted))?
A: 6.78 min

Q: What about the Cmax [3, 12] of the same compound?
A: 679 ng/mL

Q: What about the AUC(0-t) [3, 12] of the same compound?
A: 198 ng·h/mL

Q: And the AUC(0-inf) [3, 12]?
A: 198 ng·h/mL

Q: And the Cmax ([3]; female, 20 mg/kg/day, Day 14, Female)?
A: 795 ng/mL

Q: What about the Cmax [3, 13] of the same compound?
A: 1310 ng/mL

Q: And the AUC(0-t) [3, 13]?
A: 228 ng·h/mL

Q: And the AUC(0-inf) [3, 13]?
A: 228 ng·h/mL

Q: And the half-life ([3]; female, 75 mg/kg/day, Day 1, Female, read-out: t1/2 (converted))?
A: 9.36 min

Q: What about the Cmax [3, 14] of the same compound?
A: 870 ng/mL

Q: What about the AUC(0-t) [3, 14] of the same compound?
A: 155 ng·h/mL

Q: And the half-life ([3]; female, 75 mg/kg/day, Day 14, Female, read-out: t1/2 (converted))?
A: 7.8 min

Q: What about the Cmax ([3]; male, 5 mg/kg/day, Day 1, Male) of the same compound?
A: 191 ng/mL

Q: What about the AUC(0-t) ([3]; male, 5 mg/kg/day, Day 1, Male) of the same compound?
A: 39.9 ng·h/mL

Q: And the AUC(0-inf) ([3]; male, 5 mg/kg/day, Day 1, Male)?
A: 40.1 ng·h/mL

Q: What about the Cmax [3, 15] of the same compound?
A: 627 ng/mL

Q: What about the AUC(0-t) [3, 15] of the same compound?
A: 114 ng·h/mL

Q: And the AUC(0-inf) [3, 15]?
A: 115 ng·h/mL

Q: And the Cmax [3, 16]?
A: 4190 ng/mL

Q: What about the AUC(0-t) [3, 16] of the same compound?
A: 420 ng·h/mL

Q: And the AUC(0-inf) [3, 16]?
A: 421 ng·h/mL

Q: What about the half-life ([3]; male, 20 mg/kg/day, Day 1, Male, read-out: t1/2 (converted)) of the same compound?
A: 7.5 min

Q: What about the Cmax [3, 17] of the same compound?
A: 1200 ng/mL

Q: What about the AUC(0-t) [3, 17] of the same compound?
A: 133 ng·h/mL

Q: What about the AUC(0-inf) [3, 17] of the same compound?
A: 133 ng·h/mL

Q: And the half-life ([3]; male, 20 mg/kg/day, Day 14, Male, read-out: t1/2 (converted))?
A: 8.58 min

Q: And the Cmax [3, 18]?
A: 7010 ng/mL

Q: What about the AUC(0-t) [3, 18] of the same compound?
A: 1030 ng·h/mL

Q: And the AUC(0-inf) [3, 18]?
A: 1040 ng·h/mL

Q: And the Cmax [3, 19]?
A: 3290 ng/mL

Q: And the AUC(0-t) [3, 19]?
A: 391 ng·h/mL

Q: What about the AUC(0-inf) [3, 19] of the same compound?
A: 392 ng·h/mL

Q: And the half-life ([3]; male, 75 mg/kg/day, Day 14, Male, read-out: t1/2 (converted))?
A: 6.96 min

Q: And the Cytotoxicity ([4]; 1600 μg/plate, all S. typhimurium strains)?
A: slight cytotoxicity

Q: What about the “Repeat test, revertant colonies” value ([4]; TA1537 and TA98, absence of S9 mix, up to 2000 μg/plate) of the same compound?
A: no increases in the revertant colonies number per plate

Q: What about the “Mutagenic potential (conclusion)” value ([4]; absence or presence of S9) of the same compound?
A: no mutagenic potential

Q: What about the Cytotoxicity ([5]; E. coli strain, absence or presence of S9 mix) of the same compound?
A: No cytotoxicity

Q: And the “Mutagenic potential (conclusion)” value ([5]; absence or presence of S9)?
A: no mutagenic potential

Q: Which “Accumulation over the 7-day treatment period” value ([6]; daily intranasal instillation) does the source give for `COc1ccc2[nH]cc(CCN(C)C)c2c1` [BPL-5MEO, 5-methoxy-N,N-dimethyltryptamine] here?
A: did not accumulate

Q: What about the Tmax ([6]; dog, plasma, inhaled or intranasal, dogs, Days 1 and 7, both sexes) of the same compound?
A: 2 to 15 min

Q: What about the “Effect on reproductive tissues” value (Beagle dogs; 14-day pivotal GLP intranasal toxicity study, dogs) of the same compound?
A: no evidence of an adverse effect on reproductive tissues

Q: What about the “Triglyceride (mmol/L), Mean ± SD Day 14” value (Beagle dogs; Group 2, 0.4 mg/kg/day, Females) of the same compound?
A: 0.46 ± 0.61 mmol/L

Q: And the “Triglyceride (mmol/L), Mean ± SD Day 14” value (Beagle dogs; Group 2, 0.4 mg/kg/day, Males)?
A: 0.40 ± 0.11 mmol/L

Q: What about the “Triglyceride (mmol/L), Mean ± SD Day 14” value (Beagle dogs; Group 3, 0.8 mg/kg/day, Females) of the same compound?
A: 0.47 ± 0.22 mmol/L

Q: And the “Triglyceride (mmol/L), Mean ± SD Day 14” value (Beagle dogs; Group 3, 0.8 mg/kg/day, Males)?
A: 0.44 ± 0.07 mmol/L

Q: And the “Time to resolution of clinical signs” value (Beagle dogs; all treated groups)?
A: ≤ 90 min

Q: And the Transient clinical observations (Beagle dogs; animals in all treated groups)?
A: incoordination, vocalization, mydriasis, decreased or increased activity, increased respiration, gnawing cage wire, excessive licking of nose or lips and circling

Q: What about the NOAEL at 14 days [7] of the same compound?
A: 1.5 mg/kg/day

Q: What about the Clinical observations (Dog) of the same compound?
A: Slighttremor

Q: What about the NOAEL at 14 days [8] of the same compound?
A: 1.5 mg/kg

Q: And the MTD [9]?
A: 2.5 mg/kg

Q: What about the Mortality and bodyweights (dogs; dose escalation phase, 2 to 5 mg/kg) of the same compound?
A: no BPL-5MEO-related effects on mortality or bodyweights

Q: And the “Duration of convulsion in the male animal” value (dogs; last escalating dose 3.5 mg/kg/day)?
A: 8 min
